Columns and labels:
Format in all cases: cell-based
[1] = molecular target: T1, GPR86 (P2Y13) human receptor (Homo sapiens, UniProt Q9BPV8, T179M); experiment: Western blot of phosphorylated Erk1 and Erk2 in GPR86-transfected CHO-K1 cells; design: expressed in transfected cells; settings: for Erk phosphorylation / time of stimulation giving maximal Erk phosphorylation response: 1 μM; for concentration at which a significant effect on Erk phosphorylation was already observed / concentration giving maximal effect on Erk phosphorylation: 5 min stimulation; for concentration giving maximal effect on Erk phosphorylation: 1 nM to 10 μM tested
T1 sequence (Q9BPV8 22-354 T179M): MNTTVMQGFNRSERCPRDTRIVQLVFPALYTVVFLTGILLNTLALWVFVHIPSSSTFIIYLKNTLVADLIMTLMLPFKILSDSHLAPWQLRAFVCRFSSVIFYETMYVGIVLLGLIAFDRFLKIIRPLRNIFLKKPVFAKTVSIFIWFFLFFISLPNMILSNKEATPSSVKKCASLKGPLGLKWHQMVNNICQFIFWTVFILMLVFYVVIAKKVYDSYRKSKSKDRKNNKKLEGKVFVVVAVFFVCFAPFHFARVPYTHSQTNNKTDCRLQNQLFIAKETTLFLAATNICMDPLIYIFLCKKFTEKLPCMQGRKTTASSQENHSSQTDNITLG
Experimental: To investigate changes in the activation status of the MAP kinases Erk1 and Erk2 upon stimulation of the human GPR86 receptor, whole CHO-K1 transfected cell extracts were analysed by Western blotting using a specific antibody for the dually phosphorylated kinases (at Thr^202 and Tyr^204), which are the active forms of Erk. Western Blot Analysis of phosphorylated Erk1 and Erk2 proteins.
GPR86-transfected CHO-K1 cells were seeded at 1.5×10^6 cells/dish. After 24 h, the cells were serum-starved for 2 h in KRH buffer. After stimulation with the agonist, the cells were scraped in 1 ml of PBS pH 7.3 (137 mM NaCl, 2.7 mM KCl, 4.3 mM Na2HPO4.7H2O and 1.4 mM KH2PO4). The cells were recovered by centrifugation and lysed in 150 μl of Laemmli buffer (10% (w/v) glycerol, 5% (v/v) mercaptoethanol, 2.3% (w/v) SDS, 62.5 mM Tris-HCl pH 6.8). The protein concentration was determined using the method of Minamide and Bamburg (27). The same amount of protein for each condition was electrophoresed in a 12% SDS-polyacrylamide gel. Proteins were then transferred overnight at 60 V and 4° C. onto a nitrocellulose membrane using 20 mM Tris, 154 mM glycine, 20% (v/v) methanol as a transfer buffer. Immunodetection was achieved using the enhanced chemiluminescence Western blotting detection system (ECL, Amersham Phammacia Biotech) using a biotinylated-secondary mouse antibody ( 1/25,000). The monoclonal antibody specific for the dually phosphorylated forms of Erk1 and Erk2 (at Thr^202 and Tyr^204) was used at 1/1000-dilution.
In CHO-K1 cells, phosphorylated Erk1 and Erk2 had the predicted molecular mass of 44 and 42 kDa, respectively. […] GPR86-transfected CHO-K1 cells were stimulated during different times or with various concentrations of ADP and 2MeSADP or water (CONT). The effect of 100 ng/ml pertussis toxin (PTx) has been tested at 5 and 30 min in the presence of 1 μM ADP or 2MeSADP. Blotting and immunodetection were achieved as described using the enhanced chemiluminescence Western blotting detection system (ECL, Amersham Pharmacia Biotech).

[2] = molecular target: T1, GPR86 (P2Y13) human receptor; experiment: cAMP accumulation in CHO-K1 cells expressing GPR86 in the presence of forskolin; design: expressed in transfected cells; host or cells: 1321N1 astrocytoma clone AG32 (stably expressing Gα16 from pERAEQ2), G418-selected; settings: forskolin 4 μM
Experimental: Secondary messenger assays, amenable to high throughput screening analysis, are performed including but not limited to the measurement of intracellular levels of cAMP, intracellular inositol phosphate, intracellular diacylglycerol concentrations, arachinoid acid concentration or MAP kinase or tyrosine kinase activity (as decribed above). For example, the GPR86 activity, as measured in a cyclic AMP assay, is quantified by a radioimmunoassay as previously described (26). Results are compared to the baseline level of GPR86 activity obtained from recombinant cells according to the invention in the presence of ADP but in the absence of added modulator compound. Wells showing at least 2 fold, preferably 5 fold, more preferably 10 fold and most preferably a 100 fold or more increase or decrease in GPR86 activity as compared to the level of activity in the absence of modulator, are selected for further analysis.
The potential effect of nucleotides was tested on the cAMP pathway in CHO-K1 cells expressing the human GPR86 receptor. […] CHO-K1 transfected cells were incubated in the presence of various concentrations of ADP and 4 μM forskolin for 10 min. The data represent the mean±S.D. of triplicate experimental points obtained in one representative experiment of three and 2MeSADP in the presence of forskolin 4 μM. […] CHO-K1 transfected cells were incubated in the presence of various concentrations of ADP an 4 μM forskolin for 10 minutes. The data represent the mean+/−S.D. of triplicate experimental points obtained in one representative experiment of three. CHO-K1 transfected cells were pre-incubated with or without 100 ng/ml pertussis toxin for 18 h and then incubated in the presence of ADP (100 nM and 100 μM) or water (CONT) and 4 μM forskolin for 10 min. The data represent the mean±S.D. of triplicate experimental points obtained in one representative experiment of two. The biphasic effect of ADP on adenylyl cyclase has been reproduced in 1321N1 cells transfected with the human GPR86 receptor.

CHO-K1 control cells = experiment: Erk phosphorylation in CHO-K1 control cells transfected with empty pEFIN5 vector; settings: 1 μM; 5 min, 20 min or 1 h

| Structure (SMILES) | Erk phosphorylation [1] | time of stimulation giving maximal Erk phosphorylation response [1] [min] | concentration at which a significant effect on Erk phosphorylation was already observed [1] [nM] | concentration giving maximal effect on Erk phosphorylation [1] [µM] | effect on cAMP level at low concentrations [2] | Erk1 or Erk2 phosphorylation (CHO-K1 control cells) | effect on adenylyl cyclase / cAMP at high concentration ([2]; 10 μM) | effect on cAMP level after pertussis toxin pretreatment ([2]; ADP 100 nM and 100 μM, 18 h pretreatment with 100 ng/ml pertussis toxin) | maximal inhibition percentage of cAMP ([2]; at 30 nM) [%] | IC50 ([2]; 10 min, mean±S.D. of three independent experiments, read-out: IC50, inhibition of cAMP level) [nM] |
| --- | --- | --- | --- | --- | --- | --- | --- | --- | --- | --- |
| CSc1nc(N)c2ncn([C@@H]3O[C@H](COP(=O)(O)OP(=O)(O)O)[C@@H](O)[C@H]3O)c2n1 [2MeSADP, 2-methylthio-ADP] | strong phosphorylation of Erk2 | 5 | 10 | 1 | Significant inhibitions of the cAMP level | not observed |  |  |  |  |
| Nc1ncnc2c1ncn2[C@@H]1O[C@H](COP(=O)(O)OP(=O)(O)O)[C@@H](O)[C@H]1O [ADP] | strong phosphorylation of Erk2 | 5 | 10 | 1 | Significant inhibitions of the cAMP level | not observed | small increase | significant increases of the cAMP level | 52±7 | 1.5 ± 0.6 |
